Measurements as given in US10251395B2, “Substituted furano-/thienocycloalkylamino-2-pyrimidine derivatives and use thereof for controlling undesired plant growth” (Bayer CropScience Aktiengesellschaft, priority 2015, dated 2019).

What was measured:
Assay type in all cases: in vivo
Echinochloa crus-galli [1] = assay: Post-emergence herbicidal effect; details: assessed visually after about 3 weeks vs untreated controls
Method in brief: (§1)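 Sow in sandy loam; grow in greenhouse 2–3 wk; spray one-leaf plants with WP or EC suspension/emulsion (600–800 L/ha water, 0.2% wetter); hold ~3 wk under optimal conditions; rate visually vs untreated (0–100%).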

Ipomoea purpurea = assay: Post-emergence herbicidal effect; details: assessed visually after about 3 weeks vs untreated controls
Method in brief: as §1

Abutilon theophrasti [2] = assay: Post-emergence herbicidal effect; details: assessed visually after about 3 weeks vs untreated controls
Method in brief: as §1

Amaranthus retroflexus [3] = assay: Post-emergence herbicidal effect; details: assessed visually after about 3 weeks vs untreated controls
Method in brief: as §1

Viola tricolor [4] = assay: Post-emergence herbicidal effect; details: assessed visually after about 3 weeks vs untreated controls
Method in brief: as §1

Setaria viridis [5] = assay: Post-emergence herbicidal effect; details: assessed visually after about 3 weeks vs untreated controls
Method in brief: as §1

Veronica persica [6] = assay: Post-emergence herbicidal effect; details: assessed visually after about 3 weeks vs untreated controls
Method in brief: as §1

Polygonum convolvulus = assay: Pre-emergence herbicidal effect; details: scored visually after 3 weeks
Method in brief: (§2)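 Greenhouse pre-emergence test: compound sprayed onto covering soil over sown seeds, assessed by eye after 3 weeks. Scale runs from 0% (like control) to 100% (plants died).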

Echinochloa crus-galli [7] = assay: Pre-emergence herbicidal effect; details: scored visually after 3 weeks
Method in brief: as §2

Abutilon theophrasti [8] = assay: Pre-emergence herbicidal effect; details: scored visually after 3 weeks
Method in brief: as §2

Matricaria inodora [9] = assay: Pre-emergence herbicidal effect; details: scored visually after 3 weeks
Method in brief: as §2

Amaranthus retroflexus [10] = assay: Pre-emergence herbicidal effect; details: scored visually after 3 weeks
Method in brief: as §2

Viola tricolor [11] = assay: Pre-emergence herbicidal effect; details: scored visually after 3 weeks
Method in brief: as §2

Cyperus esculentus = assay: Pre-emergence herbicidal effect; details: Dosage 320 g/ha, scored visually after 3 weeks
Method in brief: as §2

Lolium multiflorum [12] = assay: Pre-emergence herbicidal effect; details: scored visually after 3 weeks
Method in brief: as §2

Alopecurus myosuroides [13] = assay: Pre-emergence herbicidal effect; details: scored visually after 3 weeks
Method in brief: as §2

Setaria viridis [14] = assay: Pre-emergence herbicidal effect; details: scored visually after 3 weeks
Method in brief: as §2

Veronica persica [15] = assay: Pre-emergence herbicidal effect; details: scored visually after 3 weeks
Method in brief: as §2

Stellaria media [16] = assay: Pre-emergence herbicidal effect; details: scored visually after 3 weeks
Method in brief: as §2

Lolium multiflorum [17] = assay: Post-emergence herbicidal effect; details: 320 g/ha, assessed visually after about 3 weeks vs untreated controls
Method in brief: as §1

Alopecurus myosuroides [18] = assay: Post-emergence herbicidal effect; details: 320 g/ha, assessed visually after about 3 weeks vs untreated controls
Method in brief: as §1

Stellaria media [19] = assay: Post-emergence herbicidal effect; details: assessed visually after about 3 weeks vs untreated controls
Method in brief: as §1

Matricaria inodora [20] = assay: Post-emergence herbicidal effect; details: 320 g/ha, assessed visually after about 3 weeks vs untreated controls
Method in brief: as §1

SMILES	post-emergence efficacy AMARE (Amaranthus retroflexus [3]; 80 g/ha)	post-emergence efficacy AMARE (Amaranthus retroflexus [3]; 320 g/ha)	post-emergence efficacy VIOTR (Viola tricolor [4]; 80 g/ha)	post-emergence efficacy VIOTR (Viola tricolor [4]; 320 g/ha)	post-emergence efficacy VERPE (Veronica persica [6]; 80 g/ha)	post-emergence efficacy VERPE (Veronica persica [6]; 320 g/ha)	POLCO pre-emergence efficacy (herbicidal activity) (Polygonum convolvulus; Dosage 320 g/ha)	ECHCG pre-emergence efficacy (herbicidal activity) (Echinochloa crus-galli [7]; Dosage 80 g/ha)	ECHCG pre-emergence efficacy (herbicidal activity) (Echinochloa crus-galli [7]; Dosage 320 g/ha)	MATIN pre-emergence efficacy (herbicidal activity) (Matricaria inodora [9]; Dosage 80 g/ha)	MATIN pre-emergence efficacy (herbicidal activity) (Matricaria inodora [9]; Dosage 320 g/ha)	AMARE pre-emergence efficacy (herbicidal activity) (Amaranthus retroflexus [10]; Dosage 80 g/ha)	AMARE pre-emergence efficacy (herbicidal activity) (Amaranthus retroflexus [10]; Dosage 320 g/ha)	VIOTR pre-emergence efficacy (herbicidal activity) (Viola tricolor [11]; Dosage 80 g/ha)	VIOTR pre-emergence efficacy (herbicidal activity) (Viola tricolor [11]; Dosage 320 g/ha)	CYPES pre-emergence efficacy (herbicidal activity) (Cyperus esculentus)	ALOMY pre-emergence efficacy (herbicidal activity) (Alopecurus myosuroides [13]; Dosage 320 g/ha)	SETVI pre-emergence efficacy (herbicidal activity) (Setaria viridis [14]; Dosage 80 g/ha)	SETVI pre-emergence efficacy (herbicidal activity) (Setaria viridis [14]; Dosage 320 g/ha)	VERPE pre-emergence efficacy (herbicidal activity) (Veronica persica [15]; Dosage 80 g/ha)	also measured
Cc1cc2c(s1)CCCC2Nc1ncc(S(C)(=O)=O)c(N)n1 (racemic) [compound 59]	60%	90%	80%	80%	90%	100%	100%	100%	100%	100%	100%	100%	100%	100%	100%	80%	80%	80%	100%	100%	post-emergence efficacy ECHCG (Echinochloa crus-galli [1]; 80 g/ha): 20%; post-emergence efficacy ECHCG (Echinochloa crus-galli [1]; 320 g/ha): 100%; post-emergence efficacy PHBPU (Ipomoea purpurea; 80 g/ha): 80%; post-emergence efficacy PHBPU (Ipomoea purpurea; 320 g/ha): 80%; post-emergence efficacy ABUTH (Abutilon theophrasti [2]; 80 g/ha): 20%; post-emergence efficacy ABUTH (Abutilon theophrasti [2]; 320 g/ha): 20%; post-emergence efficacy SETVI (Setaria viridis [5]; 80 g/ha): 90%; post-emergence efficacy SETVI (Setaria viridis [5]; 320 g/ha): 90%; POLCO pre-emergence efficacy (herbicidal activity) (Polygonum convolvulus; Dosage 80 g/ha): 80%; ABUTH pre-emergence efficacy (herbicidal activity) (Abutilon theophrasti [8]; Dosage 80 g/ha): 80%; ABUTH pre-emergence efficacy (herbicidal activity) (Abutilon theophrasti [8]; Dosage 320 g/ha): 100%; LOLMU pre-emergence efficacy (herbicidal activity) (Lolium multiflorum [12]; Dosage 320 g/ha): 90%; VERPE pre-emergence efficacy (herbicidal activity) (Veronica persica [15]; Dosage 320 g/ha): 100%; STEME pre-emergence efficacy (herbicidal activity) (Stellaria media [16]; Dosage 80 g/ha): 100%; STEME pre-emergence efficacy (herbicidal activity) (Stellaria media [16]; Dosage 320 g/ha): 100%
Cc1cc2c(s1)C(Nc1ncc(S(C)(=O)=O)c(N)n1)CCC2 (racemic) [compound 19]	80%	90%	90%	100%	90%	100%	80%	100%	100%	100%	100%	100%	100%	100%	100%	80%	100%	100%	100%	100%	post-emergence efficacy ECHCG (Echinochloa crus-galli [1]; 80 g/ha): 100%; post-emergence efficacy ECHCG (Echinochloa crus-galli [1]; 320 g/ha): 100%; post-emergence efficacy ABUTH (Abutilon theophrasti [2]; 80 g/ha): 90%; post-emergence efficacy ABUTH (Abutilon theophrasti [2]; 320 g/ha): 90%; post-emergence efficacy LOLMU (Lolium multiflorum [17]): 80%; post-emergence efficacy ALOMY (Alopecurus myosuroides [18]): 90%; post-emergence efficacy SETVI (Setaria viridis [5]; 80 g/ha): 90%; post-emergence efficacy SETVI (Setaria viridis [5]; 320 g/ha): 100%; post-emergence efficacy STEME (Stellaria media [19]; 80 g/ha): 80%; post-emergence efficacy STEME (Stellaria media [19]; 320 g/ha): 100%; ABUTH pre-emergence efficacy (herbicidal activity) (Abutilon theophrasti [8]; Dosage 80 g/ha): 80%; ABUTH pre-emergence efficacy (herbicidal activity) (Abutilon theophrasti [8]; Dosage 320 g/ha): 100%; VERPE pre-emergence efficacy (herbicidal activity) (Veronica persica [15]; Dosage 320 g/ha): 100%; STEME pre-emergence efficacy (herbicidal activity) (Stellaria media [16]; Dosage 80 g/ha): 100%; STEME pre-emergence efficacy (herbicidal activity) (Stellaria media [16]; Dosage 320 g/ha): 100%
N#Cc1cc2c(s1)C(Nc1ncc(C(F)(F)F)c(N)n1)CCC2 (racemic) [compound 285]	100%	100%	80%	100%	60%	80%	100%	60%	100%	100%	100%	100%	100%	100%	100%	50%	60%	70%	100%	100%	post-emergence efficacy PHBPU (Ipomoea purpurea; 320 g/ha): 60%; post-emergence efficacy MATIN (Matricaria inodora [20]): 80%; post-emergence efficacy STEME (Stellaria media [19]; 80 g/ha): 90%; post-emergence efficacy STEME (Stellaria media [19]; 320 g/ha): 100%; LOLMU pre-emergence efficacy (herbicidal activity) (Lolium multiflorum [12]; Dosage 80 g/ha): 80%; LOLMU pre-emergence efficacy (herbicidal activity) (Lolium multiflorum [12]; Dosage 320 g/ha): 90%; ALOMY pre-emergence efficacy (herbicidal activity) (Alopecurus myosuroides [13]; Dosage 80 g/ha): 50%; VERPE pre-emergence efficacy (herbicidal activity) (Veronica persica [15]; Dosage 320 g/ha): 100%; STEME pre-emergence efficacy (herbicidal activity) (Stellaria media [16]; Dosage 80 g/ha): 100%; STEME pre-emergence efficacy (herbicidal activity) (Stellaria media [16]; Dosage 320 g/ha): 100%
